Reference: patent US7763615B2, “Ecteinascidin analogs for use as antitumour agents” (priority 2001, dated 2010)
Where two headings read alike, the source gives them in different places.

Experiments:
A549 = test: cells; type: cell-based; details: for GI50: read-out: GI50; for CC50: read-out: LC50
Procedure, shortened: (§1)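 Seeding density 5×10^3 cells/well; attachment 18 h in drug-free medium; exposure 48 h, 10 to 10^−8 μg/ml. Fixation cold TCA 60 min at 4° C, SRB 10 min, absorbance 490 nm.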

DU145 = test: cells; type: cell-based; details: for CC50: read-out: LC50
Procedure, shortened: as §1

HT29 = test: cells; type: cell-based; details: for CC50: read-out: LC50
Procedure, shortened: as §1

IGROV-ET = test: cells; type: cell-based; details: IGROV-ET; for CC50: read-out: LC50
Procedure, shortened: as §1

IGROV = test: cells; type: cell-based
Procedure, shortened: as §1

K562 = test: cells; type: cell-based; details: for CC50: read-out: LC50
Procedure, shortened: as §1

LNCAP = test: cells; type: cell-based; details: LNCAP; for CC50: read-out: LC50
Procedure, shortened: as §1

LOVO-DOX = test: cells; type: cell-based; details: LOVO-DOX; for CC50: read-out: LC50
Procedure, shortened: as §1

LOVO = test: cells; type: cell-based; details: LOVO; for CC50: read-out: LC50
Procedure, shortened: as §1

MEL-28 = test: cells; type: cell-based; details: for CC50: read-out: LC50
Procedure, shortened: as §1

PANC-1 = test: cells; type: cell-based; details: for CC50: read-out: LC50
Procedure, shortened: as §1

SK-BR3 = test: cells; type: cell-based; details: for CC50: read-out: LC50
Procedure, shortened: as §1

H-MEC-1 = test: Inhibition of cells growth by colorimetric assay (SRB), H-MEC-1; type: cell-based; details: for CC50: read-out: LC50
Procedure, shortened: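 Readout: SRB OD490, triplicate wells. Setup: 5×10^3 cells/well, RPMI 1640 + 10% FBS, 37° C, 5% CO2; 18 h pre-attachment; 48 h sample exposure, 10 to 10^−8 μg/ml. Outputs GI, TGI (cytostatic), LC (cytotoxic).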

SK-OV3 = test: Inhibition of cells growth by colorimetric assay (SRB), SK-OV3; type: cell-based; details: for CC50: read-out: LC50
Procedure, shortened: as §1

[1] = tested on: AML-12, normal mouse liver cells; details: 24 h
[2] = tested on: NRK-52E, normal rat kidney cells; details: 24 h
[3] = tested on: L8, normal rat skeletal muscle cells; details: 24 h
[4] = tested on: FDC-P1, normal mouse myelogeous stem cells; details: 24 h
[5] = tested on: H9c2 (2-1), normal rat cardiac muscle cells; details: 24 h
[6] = 60 min
[7] = s9, 60 min, 1 μM
CYP2D6 [8] = biological target: T1, CYP2D6 (Homo sapiens, UniProt P10635); details: 450 min, 10 µM
CYP3A4 = CYP3A4 (Homo sapiens, UniProt P08684); details: 30 min, 10 µM
Experimental: For CYP3A4 inhibition assay, the compound were tested at 10 μM in duplicate with a 0.25% final concentration of both methanol and acetonitrile in presence of the fluorescent substrate BFC (50 μM). The conversion of the BFC (7-benzyloxy-4-trifluoromethylcoumarin) in HFC (7-hydroxy-4-trifluoromethylcoumarin) was determined spectro-fluormetry after incubation with the enzyme during 30 min at 37° C.
For both assays, the fluorescent intensity measured at t=0 is subtracted from that measured after the appropriate incubation time. The ratio of signal-to-noise is calculated by comparing the fluorescence in incubations containing the test compound to the control samples containing the same solvent vehicle. The percent of control activity is calculated and reported as percent inhibition.

(HEPG2) = details: human, 24 h, 30 μM
CYP2D6 [9] = biological target: T1, CYP2D6; test: in vitro; details: CYP2D6 (% inhibition)
[10] = H-MEC-1, 48 hours exposure, SRB

T1 sequence (P10635 whole entry): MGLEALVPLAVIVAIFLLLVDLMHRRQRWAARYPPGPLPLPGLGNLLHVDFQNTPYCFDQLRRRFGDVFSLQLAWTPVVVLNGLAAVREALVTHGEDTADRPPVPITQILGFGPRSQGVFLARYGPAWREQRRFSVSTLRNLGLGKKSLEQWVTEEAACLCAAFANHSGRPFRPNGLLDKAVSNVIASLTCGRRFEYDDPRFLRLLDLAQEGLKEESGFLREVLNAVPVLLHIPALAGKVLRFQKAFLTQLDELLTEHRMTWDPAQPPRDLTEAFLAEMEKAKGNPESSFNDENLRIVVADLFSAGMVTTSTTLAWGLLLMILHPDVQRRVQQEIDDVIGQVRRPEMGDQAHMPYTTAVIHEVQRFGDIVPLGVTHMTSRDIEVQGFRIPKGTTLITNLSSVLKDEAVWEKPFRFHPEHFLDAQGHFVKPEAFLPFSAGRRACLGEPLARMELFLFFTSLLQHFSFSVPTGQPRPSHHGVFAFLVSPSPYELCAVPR
Chain of CYP3A4 (P08684 whole entry): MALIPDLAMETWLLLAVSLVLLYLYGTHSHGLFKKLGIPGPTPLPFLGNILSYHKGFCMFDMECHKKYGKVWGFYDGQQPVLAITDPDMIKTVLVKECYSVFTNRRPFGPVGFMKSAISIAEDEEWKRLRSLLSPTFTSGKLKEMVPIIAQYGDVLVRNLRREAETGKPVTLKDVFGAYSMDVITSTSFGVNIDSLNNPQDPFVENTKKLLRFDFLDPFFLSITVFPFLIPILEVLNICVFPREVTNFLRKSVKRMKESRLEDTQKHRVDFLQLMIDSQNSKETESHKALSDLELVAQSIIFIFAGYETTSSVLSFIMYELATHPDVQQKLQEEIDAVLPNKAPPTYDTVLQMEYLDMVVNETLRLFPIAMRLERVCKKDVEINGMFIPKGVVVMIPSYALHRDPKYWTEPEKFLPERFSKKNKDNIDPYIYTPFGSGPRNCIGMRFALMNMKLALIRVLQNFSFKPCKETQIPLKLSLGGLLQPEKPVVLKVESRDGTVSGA

In the case of `COc1c(C)cc2c(c1O)[C@@H]1C3[C@@H]4SC[C@]5(NC(C)Cc6c5[nH]c5ccc(F)cc65)C(=O)COC[C@@H](c5c6c(c(C)c(OC(C)=O)c54)OCO6)N3[C@@H](O)[C@H](C2)N1C` (stereo partly shown) [Compound 42], the TGI (A549; A549, 48 hours exposure, SRB) is reported as 4.09E−08 Molar, the GI50 (A549; A549, 48 hours exposure, SRB) is reported as 22 nM and the CC50 (A549; A549, 48 hours exposure, SRB) is reported as 75.9 nM. The GI50 (DU145; DU145, 48 hours exposure, SRB) was 3.51 nM, the TGI (DU145; DU145, 48 hours exposure, SRB) was 7.97E−09 Molar and the CC50 (DU145; DU145, 48 hours exposure, SRB) was 12.7 nM. The GI50 (HT29; HT29, 48 hours exposure, SRB) was 34.1 nM, the TGI (HT29; HT29, 48 hours exposure, SRB) was 1.42E−07 Molar and the CC50 (HT29; HT29, 48 hours exposure, SRB) was 12700 nM. The GI50 (IGROV-ET; 48 hours exposure, SRB) was 43.2 nM, the TGI (IGROV-ET; 48 hours exposure, SRB) was 9.42E−08 Molar and the CC50 (IGROV-ET; 48 hours exposure, SRB) was 12700 nM. The GI50 (IGROV; 48 hours exposure, SRB) was 2.44 nM, the TGI (IGROV; 48 hours exposure, SRB) was 5.12E−09 Molar and the CC50 (IGROV; read-out: LC50, 48 hours exposure, SRB) was 10.7 nM. The GI50 (K562; K562, 48 hours exposure, SRB) was 4.77 nM, the TGI (K562; K562, 48 hours exposure, SRB) was 9.15E−09 Molar and the CC50 (K562; K562, 48 hours exposure, SRB) was 2810 nM. It also gave a GI50 (LNCAP; 48 hours exposure, SRB) of 3.74 nM, a TGI (LNCAP; 48 hours exposure, SRB) of 6.61E−09 Molar and a CC50 (LNCAP; 48 hours exposure, SRB) of 11.7 nM. The GI50 (LOVO-DOX; 48 hours exposure, SRB) was 45.9 nM, the TGI (LOVO-DOX; 48 hours exposure, SRB) was 2.05E−07 Molar and the CC50 (LOVO-DOX; 48 hours exposure, SRB) was 12700 nM. The GI50 (LOVO; 48 hours exposure, SRB) was 13.5 nM, the TGI (LOVO; 48 hours exposure, SRB) was 4.37E−08 Molar and the CC50 (LOVO; 48 hours exposure, SRB) was 127 nM. For the same molecule, the GI50 (MEL-28; MEL-28, 48 hours exposure, SRB) was 0.404 nM, the TGI (MEL-28; MEL-28, 48 hours exposure, SRB) was 9.77E−10 Molar and the CC50 (MEL-28; MEL-28, 48 hours exposure, SRB) was 6.19 nM. The GI50 (PANC-1; PANC-1, 48 hours exposure, SRB) was 16.9 nM, the TGI (PANC-1; PANC-1, 48 hours exposure, SRB) was 8.25E−08 Molar and the CC50 (PANC-1; PANC-1, 48 hours exposure, SRB) was 12700 nM. For the same molecule, the GI50 (SK-BR3; SK-BR3, 48 hours exposure, SRB) was 6.63 nM, the TGI (SK-BR3; SK-BR3, 48 hours exposure, SRB) was 2.44E−08 Molar and the CC50 (SK-BR3; SK-BR3, 48 hours exposure, SRB) was 87.3 nM. It also gave a GI50 (H-MEC-1; [10]) of 40.4 nM, a TGI (H-MEC-1; [10]) of 2.47E−07 Molar and a CC50 (H-MEC-1; [10]) of 12700 nM. It also gave a GI50 (SK-OV3; SK-OV3, 48 hours exposure, SRB) of 7.37 nM, a TGI (SK-OV3; SK-OV3, 48 hours exposure, SRB) of 7.92E−07 Molar and a CC50 (SK-OV3; SK-OV3, 48 hours exposure, SRB) of 12700 nM. It also gave a Liver [1] of 1.86E−07, a Kidney [2] of 1.12E−09 and a Skeletal [3] of 3.37E−08. For the same molecule, the Myelo [4] was 6.41E−08, the Heart [5] was 1.42E−07 and the “log D n-Octanol-Dulbecco's PBS pH 7.4” value [6] was >4.8. The “Human Liver S9 Metabolic Stability (% remaining)” value [7] was 5 % remaining, the “CYP2D6 (% inhibition)” value (CYP2D6 [8]) was 19 % inhibition and the “CYP3A4 (% inhibition)” value (CYP3A4) was 78 % inhibition. For the same molecule, the “Cell Viability (% inhibition)” value ((HEPG2)) was 67 % inhibition and the “Solubility Dulbecco's PBS pH 7.4” value was 10.37 μM.
With `COc1c(C)cc2c(c1O)[C@@H]1C3[C@@H]4SC[C@]5(NC(C)Cc6c5[nH]c5ccccc65)C(=O)COC[C@@H](c5c6c(c(C)c(OC(C)=O)c54)OCO6)N3[C@@H](O)[C@H](C2)N1C` (stereo partly shown) [Compound 44] the TGI (A549; A549) was 4.76E−08, the GI50 (A549; A549) was 27.4 nM and the CC50 (A549; A549) was 82.3 nM. The GI50 (DU145; DU145) was 6.54 nM, the TGI (DU145; DU145) was 1.18E−08 and the CC50 (DU145; DU145) was ≥ 13000 nM. The GI50 (HT29; HT29) was 59.8 nM, the TGI (HT29; HT29) was 4.59E−07 and the CC50 (HT29; HT29) was ≥ 13000 nM. For the same molecule, the GI50 (IGROV-ET) was 28.5 nM, the TGI (IGROV-ET) was 7.06E−08 and the CC50 (IGROV-ET) was 130 nM. For the same molecule, the GI50 (IGROV) was 4.29 nM, the TGI (IGROV) was 1.22E−08 and the CC50 (IGROV; read-out: LC50) was 93 nM. The GI50 (K562; K562) was 3.94 nM, the TGI (K562; K562) was 9.38E−09 and the CC50 (K562; K562) was 107 nM. It also gave a GI50 (LNCAP) of 4.3 nM, a TGI (LNCAP) of 8.84E−09 and a CC50 (LNCAP) of 31.1 nM. For the same molecule, the GI50 (LOVO-DOX) was 91 nM, the TGI (LOVO-DOX) was 8.53E−07 and the CC50 (LOVO-DOX) was ≥ 13000 nM. For the same molecule, the GI50 (LOVO) was 27.1 nM, the TGI (LOVO) was 5.10E−08 and the CC50 (LOVO) was 96.1 nM. It also gave a GI50 (MEL-28; MEL-28) of 2.63 nM, a TGI (MEL-28; MEL-28) of 5.22E−09 and a CC50 (MEL-28; MEL-28) of 10.3 nM. The GI50 (PANC-1; PANC-1) was 56.7 nM, the TGI (PANC-1; PANC-1) was 1.55E−07 and the CC50 (PANC-1; PANC-1) was ≥ 13000 nM. It also gave a GI50 (SK-BR3; SK-BR3) of 12.7 nM, a TGI (SK-BR3; SK-BR3) of 4.27E−08 and a CC50 (SK-BR3; SK-BR3) of 177 nM. For the same molecule, the GI50 (H-MEC-1; H-MEC-1) was 75.3 nM, the TGI (H-MEC-1; H-MEC-1) was 1.31E−06 and the CC50 (H-MEC-1; H-MEC-1) was ≥ 13000 nM. The GI50 (SK-OV3; SK-OV3) was 37.5 nM, the TGI (SK-OV3; SK-OV3) was 1.31E−07 and the CC50 (SK-OV3; SK-OV3) was ≥ 13000 nM. For the same molecule, the Liver [1] was 4.33E−07, the Kidney [2] was 4.15E−07 and the Skeletal [3] was 4.02E−08. For the same molecule, the Myelo [4] was 1.21E−07, the Heart [5] was 5.20E−06 and the “log D n-Octanol-Dulbecco's PBS pH 7.4” value [6] was >4.9. The “Human Liver S9 Metabolic Stability (% remaining)” value [7] was 4 % remaining, the “CYP3A4 (% inhibition)” value (CYP3A4) was 72 % inhibition and the “Cell Viability (% inhibition)” value ((HEPG2)) was 73 % inhibition. For the same molecule, the “Solubility Dulbecco's PBS pH 7.4” value was 20.69 μM and the inhibition at 450 min, 10 µM (CYP2D6 [9]) was 16%.
